The source of these data is publication PMC6804079, “Investigation of 5’-Norcarbocyclic Nucleoside Analogues as Antiprotozoal and Antibacterial Agents” (Molecules, 2019).

Structures are written as SMILES. Converted amounts (≈) assume the structure as drawn. “And” between values parts separate entries of the source, which are not always exact repeats. Equal entries are not always repeated.

One may read the IC50 as the concentration at which inhibition is half-maximal.

Data set [1] relates to T. b. brucei strain Lister 427 (s427-WT). Put plainly: resazurin EC50 assay, T. b. brucei wild-type bloodstream forms. Particulars: 48 h + 24 h resazurin, average and SEM, at least three determinations, NE = no effect on cell viability at 100 µM; for EC50: Trypanosoma brucei, 72 h. The format is cell-based, Trypanosoma brucei brucei.
Data set [2] relates to T. brucei B48. Put plainly: microbe, parasite or virus in culture. The data set is classed as cell-based, Trypanosoma brucei brucei. Particulars: for EC50: Trypanosoma brucei, read-out: T. Brucei, EC50, B48.
Data set [3] relates to T. brucei 2T1 PYR6-5 −/−. The data set can be described thus: microbe, parasite or virus in culture. The format is cell-based, Trypanosoma brucei brucei. To be noted: Trypanosoma brucei, read-out: T. Brucei, EC50, 2T1 PYR6-5 −/−.
Data set [4] concerns Tbb-5FURes. The data set can be described thus: microbe, parasite or virus in culture. The data set is classed as cell-based, Trypanosoma brucei brucei. Particulars: Trypanosoma brucei, read-out: T. Brucei, EC50, Tbb-5FURes.
Data set [5] concerns U-937 cells. The data set can be described thus: U-937 cytotoxicity (XTT). To be noted: 6 days incubation. The data set is classed as cell-based. Here is the method:
The U-937 cells used in the cytotoxicity evaluation were obtained from the AIDS Research and Reference Program. The cells were cultured as indicated by the supplier in RPMI-1640 supplemented with 10% heat inactivated FBS, 1% penicillin/streptomycin solution, and 1% L-glutamine.
U-937 cells plated at 2.5 × 10^3 cells/well in a volume of 100 µL were incubated with serially diluted test compounds in a volume of 100 µL for 6 days at 37 °C/5% CO2. Following the incubation, the cells were stained by adding 50 μL tetrazolium dye XTT (Sigma) solution at 5 mg/mL to determine cellular viability and read at 460/650 nm on a spectrophotometer. Toxicity values were calculated using linear regression analysis.
On the technique in general: Tetrazolium assays rely on reduction of a dye to a coloured formazan, in cell work by metabolically active cells.

In data set [6] the test system is M. tuberculosis ATCC 25,177 (H37Ra). The data set can be described thus: microbe, parasite or virus in culture. The format is cell-based, Mycobacterium tuberculosis. Particulars: for MIC: Mycobacterium tuberculosis, read-out: M. Tuberculosis 25,177 MIC.
In data set [7] the test system is M. tuberculosis H37Rv. Put plainly: microbe, parasite or virus in culture. The format is cell-based. Particulars: Mycobacterium tuberculosis, control drugs at critical concentrations.
In data set [8] the test system is L. mexicana 5FURes (Lmex5FURes). Put plainly: microbe, parasite or virus in culture. To be noted: Leishmania mexicana, read-out: L. Mexicana 5FUR, EC50.
Method: Promastigotes of Leishmania mexicana strain MNY/BZ/62/M379 was cultured in a minimal essential medium, HO-MEMO-MEME, supplemented with 10% FBS and 1% of a penicillin/streptomycin solution (Gibco) as described previously [39] at 25 °C. The L. mexicana 5FURes strain was the same strain but adapted in vitro to high levels of 5FU exactly as described for T. brucei [12].
The resazurin assay for L. mexicana promastigotes was performed exactly as for T. b. brucei, except that incubation times of 72 and 48 h were used before and after the addition of resazurin, respectively, due to the slower metabolism of the dye by Leishmania promastigotes [42].
Data set [9] deals with T. vaginalis strain G3. The data set can be described thus: resorufin-based EC50 assay, T. vaginalis. To be noted: Trichomonas vaginalis, read-out: Trichomonas Vaginalis, EC50.
Method: The standard metronidazole-susceptible T. vaginalis strain G3was originally obtained from Jeremy Mottram (University of York, UK) and cultured in a modification of Diamond′s medium supplemented with 10% horse serum with a composition as described [40] at 37 °C under anaerobic conditions. Cultures were passaged daily.
Drugs were tested on T. vaginalis using a resorufin-based assay that we developed [40, 43]. The assay is based on the principle that live T. vaginalis trophozoites are, almost uniquely, able to reduce fluorescent, pink resorufin to non-fluorescent, colorless dihydro-resorufin. This conversion was measured as a dose-dependent increase in fluorescence (with dead cells unable to metabolize the fluorophore; λexc 544 nm, λem 599 nm), resulting in a sigmoid curve with variable slope that yielded EC50 values (Prism 6.0). Plates contained 11 doubling dilutions (1 row) and no-drug control for each compound starting at 100 µM under anaerobic conditions as described [40, 43]. Fluorescence was determined in a PheraStar plate reader (BMG Labtech).
Data set [10] deals with M. tuberculosis MS-115. Put plainly: microbe, parasite or virus in culture. The data set is classed as cell-based. Particulars: Mycobacterium tuberculosis, MS115, read-out: M. Tuberculosis MS-115 MIC.
The subject of data set [11] is M. smegmatis 700,084. The data set is classed as cell-based, Mycobacterium smegmatis. To be noted: tested up to 250 µM.
In data set [12] the test system is Staphylococcus aureus NRS384. The data set can be described thus: microbe, parasite or virus in culture. The format is cell-based. To be noted: NRS384, read-out: extrapolated IC50, growth of S. aureus NRS384.

Regarding `CCCCCCCCCCC#Cc1cn([C@H]2C=C[C@@H](O)C2)c(=O)n([C@H]2C=C[C@@H](O)C2)c1=O` [Compound 2, 1-[4′-Hydroxy-2′-cyclopenten-1′-yl]-3-(4′′-hydroxy-2′′-cyclopent-en-1′′-yl)-5-dodecynyluracil], the EC50 in data set [1] amounted to 3.1 µM; in [2], 4 ± 0.4 µM; in [3], 5.5 ± 0.5 µM; in data set [4], 5.2 ± 0.6 µM; in [8], 51.1 ± 0.6 µM; in [9] it was 48.9 ± 0.05 µM. Moreover, in [5], the “U-937 Cells TC50” value worked out at 22.1 µM. Further, the MIC in data set [6] was 31 µM and 13.6 µg/mL; in data set [7], above 50 µg/mL.
Consider `CCCCCCCCC#Cc1cn([C@H]2C=C[C@@H](O)C2)c(=O)n([C@H]2C=C[C@@H](O)C2)c1=O` [Compound 3, 1-[4′-Hydroxy-2′-cyclopenten-1′-yl]-3-(4′′-hydroxy-2′′-cyclopent-en-1′′-yl)-5-decynyluracil], for which the EC50 in data set [1] is around 13 µM; in [2], 14.7 ± 0.2 µM; in data set [3], 17.1 ± 1.2 µM; in [4], 19.9 ± 0.7 µM; in [8] it was 25.8 ± 0.4 µM; in data set [9], 32 ± 0.001 µM. Further, in [5], the “U-937 Cells TC50” value worked out at 2.2 µM. For the same compound, the MIC in data set [6] is 31 µM and 12.8 µg/mL; in data set [7], 50 µg/mL (≈ 121 µM); in data set [10], 50 µg/mL (≈ 121 µM).
Turning to `CCCCCCC#Cc1cn([C@H]2C=C[C@@H](O)C2)c(=O)n([C@H]2C=C[C@@H](O)C2)c1=O` [Compound 4, 1-[4′-Hydroxy-2′-cyclopenten-1′-yl]-3-(4′′-hydroxy-2′′-cyclopent-en-1′′-yl)-5-octynyluracil], the EC50 in data set [1] was around 13 µM; in data set [2] it was 17.7 ± 1 µM; in data set [3], 17.5 ± 1.2 µM; in data set [4], 24.9 ± 0.5 µM; in data set [8] it was 47.3 ± 0.4 µM; in data set [9], 54.1 ± 0.002 µM. The “U-937 Cells TC50” value in data set [5] came to 73.8 µM. Besides, the MIC was 31 µM and 11.9 µg/mL in [6]; above 50 µg/mL in data set [7].
As to `CCCC#Cc1cn([C@H]2C=C[C@@H](O)C2)c(=O)n([C@H]2C=C[C@@H](O)C2)c1=O` [Compound 5, 1-[4′-Hydroxy-2′-cyclopenten-1′-yl]-3-(4′′-hydroxy-2′′-cyclopent-en-1′′-yl)-5-pentynyluracil], the EC50 was above 100 µM in data set [1]; above 100 µM in data set [2]; above 100 µM in data set [3]; above 100 µM in data set [4]; above 100 µM in data set [8]; 73.5 ± 0.08 µM in data set [9]. Also, the “U-937 Cells TC50” value in data set [5] was 88.5 µM. Also, in data set [6], the MIC was > 1000 µM and > 342 µg/mL.
Take `O=c1c(C#Cc2ccccc2)cn([C@H]2C=C[C@@H](O)C2)c(=O)n1[C@H]1C=C[C@@H](O)C1` [Compound 6]: the EC50 in [1] is above 100 µM; in data set [2], above 100 µM; in data set [3], above 100 µM; in data set [4], above 100 µM; in data set [8], above 100 µM; in data set [9] it was 70.2 ± 0.06 µM. Also, the “U-937 Cells TC50” value in data set [5] came to 166.2 µM. Moreover, the MIC in data set [6] is 500 µM and 188 µg/mL.
`CC(C)(C)c1ccc(C#Cc2cn([C@H]3C=C[C@@H](O)C3)c(=O)n([C@H]3C=C[C@@H](O)C3)c2=O)cc1` [Compound 7, 1-[4′-Hydroxy-2′-cyclopenten-1′-yl]-3-(4′′-hydroxy-2′′-cyclopent-en-1′′-yl)-5-(4-tertbutylphenynylethenyl)uracil]: the EC50 in data set [1] is around 8 µM; in data set [2], 10.8 ± 0.6 µM; in [3], 14.7 ± 0.4 µM; in data set [4], 12.6 ± 1.4 µM; in [8], 45.3 ± 2.2 µM; in data set [9], 52.8 ± 0.007 µM. For the same compound, in data set [5], the “U-937 Cells TC50” value turned out to be 22.5 µM. For the same compound, the MIC is 62.5 µM and 27 µg/mL in data set [6]; above 50 µg/mL in [7]. Besides, the “concentration completely inhibiting growth of M. smegmatis” value in data set [11] worked out at 250 µM.
As to `CCCCCc1ccc(C#Cc2cn([C@H]3C=C[C@@H](O)C3)c(=O)n([C@H]3C=C[C@@H](O)C3)c2=O)cc1` [Compound 8], the EC50 in data set [1] was around 8 µM; in data set [2], 11 ± 0.6 µM; in data set [3], 15.4 ± 0.7 µM; in data set [4], 12 ± 1.2 µM; in data set [8], 27.5 ± 2.3 µM; in data set [9] it was 36.9 ± 0.18 µM. Moreover, the “U-937 Cells TC50” value in [5] was 17.3 µM. The MIC in [6] is 31 µM and 13.9 µg/mL; in [7], above 50 µg/mL. For the same compound, the “concentration completely inhibiting growth of M. smegmatis” value in [11] is 250 µM.
In the case of `O=C(NCC#Cc1cn([C@H]2C=C[C@@H](O)C2)c(=O)n([C@H]2C=C[C@@H](O)C2)c1=O)C(F)(F)F` [Compound 10, 1-[4′-Hydroxy-2′-cyclopenten-1′-yl]-3-(4′′-hydroxy-2′′-cyclopent-en-1′′-yl)-5-(trifluoroacetamidepropynyl)uracil], the “T. Brucei, EC50, S427-WT” value in data set [1] is “little or no activity at the highest concentration tested”. Also, the EC50 is above 100 µM in [1]; above 100 µM in data set [2]; above 100 µM in [3]; above 100 µM in data set [4]; above 100 µM in data set [8]; 69.2 ± 0.05 µM in data set [9]. For the same compound, in [5], the “U-937 Cells TC50” value was found to be 78.0 µM. The MIC in [6] was > 1000 µM and > 425 µg/mL. The half-maximal inhibitory concentration (IC50) in [12] is around 100 µM.
Consider `CCOC(=O)C#Cc1cn([C@H]2C=C[C@@H](O)C2)c(=O)n([C@H]2C=C[C@@H](O)C2)c1=O` [Compound 11, 1-[4′-Hydroxy-2′-cyclopenten-1′-yl]-3-(4′′-hydroxy-2′′-cyclopent-en-1′′-yl)-5-(ethyloxycarbonylpropynyl)uracil], for which the “T. Brucei, EC50, S427-WT” value in [1] is “little or no activity at the highest concentration tested”. For the same compound, the EC50 in data set [1] is above 100 µM; in data set [2], above 100 µM; in [3] it was above 100 µM; in [4], above 100 µM; in [8], above 100 µM; in [9], 53.8 ± 0.74 µM. In [5], the “U-937 Cells TC50” value was found to be 21.6 µM. In data set [6], the MIC was 1000 µM and 372 µg/mL. For the same compound, the IC50 in data set [12] was around 100 µM.
Consider `CCCCCCCCCc1ccc(OCCOCCOCCOCCOCCOCCOCCOCCOCCO)cc1` [Compound N9, Nonoxynol-9, reference compound], for which the “U-937 Cells TC50” value is listed as 6.5 µg/mL in data set [5] (positive control) and “toxic at the expected concentration” in [5] (positive control, listed as Nonoxynol-9).
As to `NNC(=O)c1ccncc1` [Isoniazid, reference compound], the MIC is 0.1 µg/mL (≈ 0.729 µM) in data set [7] and above 100 µg/mL in data set [10].
For the compound `NC[C@H]1O[C@H](O[C@H]2[C@H](O)[C@@H](O[C@H]3O[C@H](CO)[C@@H](O)[C@H](N)[C@H]3O)[C@H](N)C[C@@H]2N)[C@H](O)[C@@H](O)[C@@H]1O` [Kanamycin, reference compound], the “M. Tuberculosis 25,177 MIC” value in [6] was 6.5 µM and 3.13 µg/mL.
For the compound `C[C@H]1COc2c(N3CCN(C)CC3)c(F)cc3c(=O)c(C(=O)O)cn1c23` [Levofloxacin, reference compound], the MIC in data set [7] and in data set [10] was 1.5 µg/mL (≈ 4.15 µM) throughout.
Turning to `Cc1ncc([N+](=O)[O-])n1CCO` [Metronidazole, reference compound], the EC50 in [9] turned out to be 0.53 ± 0.1 µM.
Turning to `N=C(N)c1ccc(OCCCCCOc2ccc(C(=N)N)cc2)cc1` [Pentamidine, reference compound], the EC50 in [1] amounted to 0.0032 ± 0.0004 µM; in data set [2], 0.71 ± 0.03 µM; in data set [3] it was 0.0031 ± 0.0004 µM; in data set [4] it was 0.0034 ± 0.0004 µM; in data set [8], 1.63 ± 0.18 µM. Also, the “fold resistance, B48 versus wild-type” value in [2] (higher EC50 against multi-drug resistant strain B48) was found to be 219 fold.
`CO[C@H]1/C=C/O[C@@]2(C)Oc3c(C)c(O)c4c(O)c(c(/C=N/N5CCN(C)CC5)c(O)c4c3C2=O)NC(=O)/C(C)=C\C=C\[C@H](C)[C@H](O)[C@@H](C)[C@@H](O)[C@@H](C)[C@H](OC(C)=O)[C@@H]1C` [Rifampicin, reference compound]: the MIC in data set [6] is 0.19 µM and 0.16 µg/mL; in data set [7] it was 1 µg/mL (≈ 1.22 µM); in [10], above 50 µg/mL.
